{"source": "paper PMC5218480", "about": "(PLoS ONE, 2017)", "tested_on": "MV-4-11 cells", "assay": "Gene expression microarray analysis (Affymetrix PrimeView) and GSEA", "assay_type": "cell-based, human", "parameters": "RFU PODN (11730768_x_at) / Fold change /veh PODN (11730768_x_at) / RFU LINC00158 (11744669_a_at) / Fold change /veh LINC00158 (11744669_a_at) / RFU DUSP10 (11751237_a_at) / Fold change /veh DUSP10 (11751237_a_at) / RFU ID3 (11757404_x_at) / Fold change /veh ID3 (11757404_x_at) / RFU PLEKHG5 (11737974_s_at) / Fold change /veh PLEKHG5 (11737974_s_at) / RFU LRRC4B (11730491_at) / Fold change /veh LRRC4B (11730491_at) / RFU GIMAP4 (11747438_a_at) / Fold change /veh GIMAP4 (11747438_a_at) / RFU KRT8 (11758183_x_at) / Fold change /veh KRT8 (11758183_x_at) / RFU CNN1 (11734310_a_at) / Fold change /veh CNN1 (11734310_a_at) / RFU VPS37D (11726825_at) / Fold change /veh VPS37D (11726825_at) / RFU C10orf10 (11716522_x_at) / Fold change /veh C10orf10 (11716522_x_at) / RFU KIR2DL2 /// KIR2DL4 /// KIR2DL5A /// KIR2DL5B /// KIR2DS1 /// KIR2DS2 /// KIR2DS3 /// KIR2DS4 /// KIR3DL3 /// KIR3DL3 /// KIR3DS1 (11738374_at) / Fold change /veh KIR2DL2 /// KIR2DL4 /// KIR2DL5A /// KIR2DL5B /// KIR2DS1 /// KIR2DS2 /// KIR2DS3 /// KIR2DS4 /// KIR3DL3 /// KIR3DL3 /// KIR3DS1 (11738374_at) / RFU C1QL1 (11718748_at) / Fold change /veh C1QL1 (11718748_at) / RFU TMPRSS4 (11747572_a_at) / Fold change /veh TMPRSS4 (11747572_a_at) / RFU HAMP (11756126_x_at) / Fold change /veh HAMP (11756126_x_at) / RFU RNFT2 (11725882_a_at) / Fold change /veh RNFT2 (11725882_a_at) / RFU NR4A2 (11747474_a_at) / Fold change /veh NR4A2 (11747474_a_at) / RFU ABCC12 (11746883_a_at) / Fold change /veh ABCC12 (11746883_a_at) / RFU TMEM136 (11760407_x_at) / Fold change /veh TMEM136 (11760407_x_at) / RFU CLDN22 /// WWC2 (11732394_at) / Fold change /veh CLDN22 /// WWC2 (11732394_at) / RFU HLA-DPB1 (11760878_x_at) / Fold change /veh HLA-DPB1 (11760878_x_at) / RFU SPINT1 (11716480_a_at) / Fold change /veh SPINT1 (11716480_a_at) / RFU GAP43 (11754022_s_at) / Fold change /veh GAP43 (11754022_s_at) / RFU A4GNT (11735810_at) / Fold change /veh A4GNT (11735810_at) / RFU PRB3 (11715151_x_at) / Fold change /veh PRB3 (11715151_x_at) / RFU TUBB4B (11761932_at) / Fold change /veh TUBB4B (11761932_at) / RFU CAPN14 (11732068_a_at) / Fold change /veh CAPN14 (11732068_a_at) / RFU TMCC2 (11721928_a_at) / Fold change /veh TMCC2 (11721928_a_at) / RFU IRGQ (11745062_a_at) / Fold change /veh IRGQ (11745062_a_at) / RFU FAM174B (11720279_a_at) / Fold change /veh FAM174B (11720279_a_at) / RFU TMPRSS4 (11748680_a_at) / Fold change /veh TMPRSS4 (11748680_a_at) / RFU FAM212B (11763350_a_at) / Fold change /veh FAM212B (11763350_a_at) / RFU PLEKHG5 (11743358_a_at) / Fold change /veh PLEKHG5 (11743358_a_at) / RFU ZSCAN30 (11745921_a_at) / Fold change /veh ZSCAN30 (11745921_a_at) / RFU CMKLR1 (11741424_a_at) / Fold change /veh CMKLR1 (11741424_a_at) / RFU LOC101060620 /// MAPK8IP1 (11723275_at) / Fold change /veh LOC101060620 /// MAPK8IP1 (11723275_at) / RFU SPTSSB (11747773_x_at) / Fold change /veh SPTSSB (11747773_x_at) / RFU PRSS12 (11739890_at) / Fold change /veh PRSS12 (11739890_at) / RFU BIN1 (11741810_x_at) / Fold change /veh BIN1 (11741810_x_at) / RFU WNT11 (11732464_a_at) / Fold change /veh WNT11 (11732464_a_at) / RFU C10orf10 (11716521_a_at) / Fold change /veh C10orf10 (11716521_a_at) / RFU C5orf56 (11738089_at) / Fold change /veh C5orf56 (11738089_at) / RFU CYB561 (11721691_x_at) / Fold change /veh CYB561 (11721691_x_at) / RFU ANKRD19P (11752326_a_at) / Fold change /veh ANKRD19P (11752326_a_at) / RFU OR2T12 /// OR2T33 /// OR2T8 (11738714_s_at) / Fold change /veh OR2T12 /// OR2T33 /// OR2T8 (11738714_s_at) / RFU VCAN (11748164_a_at) / Fold change /veh VCAN (11748164_a_at) / RFU JSRP1 (11732532_at) / Fold change /veh JSRP1 (11732532_at) / RFU KRTAP10-11 (11738290_x_at) / Fold change /veh KRTAP10-11 (11738290_x_at) / RFU MYO3A (11730013_a_at) / Fold change /veh MYO3A (11730013_a_at) / RFU EBF3 (11725865_a_at) / Fold change /veh EBF3 (11725865_a_at) / RFU CAMK2N1 (11719241_x_at) / Fold change /veh CAMK2N1 (11719241_x_at) / RFU C5orf56 (11738088_a_at) / Fold change /veh C5orf56 (11738088_a_at) / RFU OLFML3 (11715873_a_at) / Fold change /veh OLFML3 (11715873_a_at) / RFU LOC100653217 /// NTM (11731650_a_at) / Fold change /veh LOC100653217 /// NTM (11731650_a_at) / RFU MAPK11 (11762145_a_at) / Fold change /veh MAPK11 (11762145_a_at) / RFU FIZ1 (11724087_x_at) / Fold change /veh FIZ1 (11724087_x_at) / RFU OASL (11726364_x_at) / Fold change /veh OASL (11726364_x_at) / RFU SOX15 (11748057_x_at) / Fold change /veh SOX15 (11748057_x_at) / RFU CD79A (11719716_a_at) / Fold change /veh CD79A (11719716_a_at) / RFU HIST1H1D (11736915_at) / Fold change /veh HIST1H1D (11736915_at) / RFU CASKIN2 (11723855_a_at) / Fold change /veh CASKIN2 (11723855_a_at) / RFU LOC730098 (11760151_x_at) / Fold change /veh LOC730098 (11760151_x_at) / RFU OR4N2 (11742367_at) / Fold change /veh OR4N2 (11742367_at) / RFU PRRT2 (11749266_a_at) / Fold change /veh PRRT2 (11749266_a_at) / RFU SNX32 (11753110_a_at) / Fold change /veh SNX32 (11753110_a_at) / RFU CDHR5 (11726645_a_at) / Fold change /veh CDHR5 (11726645_a_at) / RFU RCAN1 (11760418_a_at) / Fold change /veh RCAN1 (11760418_a_at) / RFU FAM167A (11723789_a_at) / Fold change /veh FAM167A (11723789_a_at) / RFU FAM26E (11764081_at) / Fold change /veh FAM26E (11764081_at) / RFU ISYNA1 (11749810_s_at) / Fold change /veh ISYNA1 (11749810_s_at) / RFU ACY1 (11761880_at) / Fold change /veh ACY1 (11761880_at) / RFU 11764098_at / Fold change /veh 11764098_at / RFU SAMD14 (11745864_x_at) / Fold change /veh SAMD14 (11745864_x_at) / RFU NPB (11741838_a_at) / Fold change /veh NPB (11741838_a_at) / RFU TMPRSS6 (11731388_a_at) / Fold change /veh TMPRSS6 (11731388_a_at) / RFU KRTAP10-2 (11738614_at) / Fold change /veh KRTAP10-2 (11738614_at) / RFU ARHGAP8 /// PRR5-ARHGAP8 (11727945_x_at) / Fold change /veh ARHGAP8 /// PRR5-ARHGAP8 (11727945_x_at) / RFU KRTAP5-7 /// NADSYN1 (11734609_at) / Fold change /veh KRTAP5-7 /// NADSYN1 (11734609_at) / RFU RASL12 (11751679_a_at) / Fold change /veh RASL12 (11751679_a_at) / RFU CDKN2B (11736163_a_at) / Fold change /veh CDKN2B (11736163_a_at) / RFU PRF1 (11729649_at) / Fold change /veh PRF1 (11729649_at) / RFU, ZNF638 /// ZNF638-IT1 / Fold change vs veh, ZNF638 /// ZNF638-IT1 / RFU, PANK3 / Fold change vs veh, PANK3 / RFU, SH3YL1 / Fold change vs veh, SH3YL1 / RFU, ZEB2 / Fold change vs veh, ZEB2 / RFU, NRIP1 / Fold change vs veh, NRIP1 / RFU, PTTG1IP / Fold change vs veh, PTTG1IP / RFU, CAPN2 / Fold change vs veh, CAPN2 / RFU, MED14 / Fold change vs veh, MED14 / RFU, SNORA58 / Fold change vs veh, SNORA58 / RFU, C1orf63 / Fold change vs veh, C1orf63 / RFU, LRRFIP1 / Fold change vs veh, LRRFIP1 / RFU, NDUFAF7 / Fold change vs veh, NDUFAF7 / RFU, SLC12A2 / Fold change vs veh, SLC12A2 / RFU, IBTK / Fold change vs veh, IBTK / RFU, ESF1 / Fold change vs veh, ESF1 / Fold change vs veh, TMEM50B / RFU, TAOK1 / Fold change vs veh, TAOK1 / RFU, ACBD3 / Fold change vs veh, ACBD3 / RFU, TMA16 / Fold change vs veh, TMA16 / RFU, RWDD3 / Fold change vs veh, RWDD3 / RFU, BCAT1 / Fold change vs veh, BCAT1 / RFU, EDEM3 / Fold change vs veh, EDEM3 / RFU, TMEM33 / Fold change vs veh, TMEM33 / RFU, WDR75 / Fold change vs veh, WDR75 / RFU, AHCTF1 / Fold change vs veh, AHCTF1 / RFU, TFRC / Fold change vs veh, TFRC / RFU, ZDHHC17 / Fold change vs veh, ZDHHC17 / RFU, NOM1 / Fold change vs veh, NOM1 / RFU, ARL8B / Fold change vs veh, ARL8B / RFU, ZBTB11 / Fold change vs veh, ZBTB11 / RFU, TAMM41 / Fold change vs veh, TAMM41 / RFU, KIAA1704 /// LOC100996395 / Fold change vs veh, KIAA1704 /// LOC100996395 / RFU, ING1 / Fold change vs veh, ING1 / RFU, TRMT61B / Fold change vs veh, TRMT61B / RFU, FUBP3 / Fold change vs veh, FUBP3 / RFU, TP53 / Fold change vs veh, TP53 / RFU, TNKS2 / Fold change vs veh, TNKS2 / RFU, ZFP14 / Fold change vs veh, ZFP14 / RFU, ACTR2 / Fold change vs veh, ACTR2 / RFU, PPP3R1 / Fold change vs veh, PPP3R1 / RFU, PIK3R1 / Fold change vs veh, PIK3R1 / RFU, HNRNPA1 / Fold change vs veh, HNRNPA1 / RFU, RNF170 / Fold change vs veh, RNF170 / RFU, ZNF28 / Fold change vs veh, ZNF28 / RFU, RNGTT / Fold change vs veh, RNGTT / RFU, OGT / Fold change vs veh, OGT / RFU, BRD1 / Fold change vs veh, BRD1 / RFU, MARS / Fold change vs veh, MARS / RFU, ZNF655 / Fold change vs veh, ZNF655 / RFU, FAHD1 / Fold change vs veh, FAHD1 / RFU, BDP1 / Fold change vs veh, BDP1 / RFU, LRRCC1 / Fold change vs veh, LRRCC1 / RFU, ARID1A / Fold change vs veh, ARID1A / RFU, ZNF146 / Fold change vs veh, ZNF146 / RFU, ZNF330 / Fold change vs veh, ZNF330 / RFU, GPN3 / Fold change vs veh, GPN3 / RFU, C9orf123 / Fold change vs veh, C9orf123 / RFU, N4BP2L2 / Fold change vs veh, N4BP2L2 / RFU, ARFIP1 / Fold change vs veh, ARFIP1 / RFU, FAM179B / Fold change vs veh, FAM179B / RFU, BCL10 / Fold change vs veh, BCL10 / RFU, UHRF1BP1L / Fold change vs veh, UHRF1BP1L / RFU, BET1 / Fold change vs veh, BET1 / RFU, CNOT2 / Fold change vs veh, CNOT2 / RFU, ZNF268 / Fold change vs veh, ZNF268 / Fold change vs veh, ZNF507 / RFU, DGCR2 / Fold change vs veh, DGCR2 / RFU, WDSUB1 / Fold change vs veh, WDSUB1 / Fold change vs veh, HSP90B1 /// MIR3652 / RFU, ADSS / Fold change vs veh, ADSS / RFU, GK / Fold change vs veh, GK / RFU, ZNF148 / Fold change vs veh, ZNF148 / RFU, TAF9 / Fold change vs veh, TAF9 / RFU, SLC1A5 / Fold change vs veh, SLC1A5 / RFU, SLMO2 / Fold change vs veh, SLMO2 / RFU, ABCC4 / Fold change vs veh, ABCC4 / RFU, LOC101060439 /// RAP1B / Fold change vs veh, LOC101060439 /// RAP1B / RFU, RFX7 / Fold change vs veh, RFX7 / RFU, GTPBP10 / Fold change vs veh, GTPBP10 / RFU, CNEP1R1 / Fold change vs veh, CNEP1R1 / RFU, BIVM-ERCC5 /// ERCC5 / Fold change vs veh, BIVM-ERCC5 /// ERCC5 / RFU, ILF3 / Fold change vs veh, ILF3 / RFU 11762660_at / Fold change /veh 11762660_at / RFU VCAN (11757783_s_at) / Fold change /veh VCAN (11757783_s_at) / RFU DDX43 (11728927_at) / Fold change /veh DDX43 (11728927_at) / RFU KRT8 (11758188_x_at) / Fold change /veh KRT8 (11758188_x_at) / RFU NKD1 (11759106_at) / Fold change /veh NKD1 (11759106_at) / RFU SRD5A1 (11742802_a_at) / Fold change /veh SRD5A1 (11742802_a_at) / RFU TPSAB1 /// TPSB2 (11721975_s_at) / Fold change /veh TPSAB1 /// TPSB2 (11721975_s_at) / RFU GSTM3 (11746129_a_at) / Fold change /veh GSTM3 (11746129_a_at) / RFU IL23R (11737362_x_at) / Fold change /veh IL23R (11737362_x_at) / RFU TMEM51 (11727254_a_at) / Fold change /veh TMEM51 (11727254_a_at) / RFU PIWIL2 (11732686_x_at) / Fold change /veh PIWIL2 (11732686_x_at) / RFU ORM1 (11744905_x_at) / Fold change /veh ORM1 (11744905_x_at) / RFU CCDC152 (11743942_at) / Fold change /veh CCDC152 (11743942_at) / RFU ECM1 (11717891_a_at) / Fold change /veh ECM1 (11717891_a_at) / RFU IL23R (11748794_a_at) / Fold change /veh IL23R (11748794_a_at) / RFU TNFAIP8L3 (11732012_x_at) / Fold change /veh TNFAIP8L3 (11732012_x_at) / RFU MBOAT4 (11741988_at) / Fold change /veh MBOAT4 (11741988_at) / RFU 11764193_at / Fold change /veh 11764193_at / RFU TMEM53 (11763286_at) / Fold change /veh TMEM53 (11763286_at) / RFU MAGEB2 (11727129_at) / Fold change /veh MAGEB2 (11727129_at) / RFU TMEM200A (11744735_a_at) / Fold change /veh TMEM200A (11744735_a_at) / RFU CCDC152 (11751479_a_at) / Fold change /veh CCDC152 (11751479_a_at) / RFU FAM211A (11726209_a_at) / Fold change /veh FAM211A (11726209_a_at) / RFU RGS16 (11746705_a_at) / Fold change /veh RGS16 (11746705_a_at) / RFU VCAN (11755009_s_at) / Fold change /veh VCAN (11755009_s_at) / RFU RHOB (11743442_s_at) / Fold change /veh RHOB (11743442_s_at) / RFU RGS16 (11720943_a_at) / Fold change /veh RGS16 (11720943_a_at) / RFU RGS16 (11720944_at) / Fold change /veh RGS16 (11720944_at) / RFU, VPS4B / Fold change vs veh, VPS4B / RFU, CREB1 / Fold change vs veh, CREB1 / RFU, DNAJC13 / Fold change vs veh, DNAJC13 / RFU, GNAQ / Fold change vs veh, GNAQ / RFU, CDK5R1 / Fold change vs veh, CDK5R1 / RFU, ZRANB3 / Fold change vs veh, ZRANB3 / RFU, CUL4A / Fold change vs veh, CUL4A / RFU, CCNY / Fold change vs veh, CCNY / RFU, UFL1 / Fold change vs veh, UFL1 / RFU, COG3 / Fold change vs veh, COG3 / RFU, DIAPH2 / Fold change vs veh, DIAPH2 / RFU, SKA2 / Fold change vs veh, SKA2 / RFU, AFF3 / Fold change vs veh, AFF3 / RFU, LMF1 / Fold change vs veh, LMF1 / RFU, IPO11 / Fold change vs veh, IPO11 / RFU, DFFB / Fold change vs veh, DFFB / RFU, FOXP1 / Fold change vs veh, FOXP1 / RFU, CARD8 / Fold change vs veh, CARD8 / RFU, STRN3 / Fold change vs veh, STRN3 / RFU, ADK / Fold change vs veh, ADK / RFU, RASSF2 / Fold change vs veh, RASSF2 / RFU, WIPF1 / Fold change vs veh, WIPF1 / RFU, LARP1B / Fold change vs veh, LARP1B / RFU, RASA1 / Fold change vs veh, RASA1 / RFU, RB1 / Fold change vs veh, RB1 / RFU, PPFIA1 / Fold change vs veh, PPFIA1 / RFU, MAT2A / Fold change vs veh, MAT2A / RFU, CCT5 / Fold change vs veh, CCT5 / RFU, WDR92 / Fold change vs veh, WDR92 / RFU, CUX1 / Fold change vs veh, CUX1 / RFU, TTC7A / Fold change vs veh, TTC7A / RFU, TMEM135 / Fold change vs veh, TMEM135 / RFU, DEPTOR / Fold change vs veh, DEPTOR / RFU, CPM / Fold change vs veh, CPM / RFU, DNAJB6 / Fold change vs veh, DNAJB6 / RFU, CACNA2D3 / Fold change vs veh, CACNA2D3 / RFU, DTX4 / Fold change vs veh, DTX4 / RFU, TFCP2 / Fold change vs veh, TFCP2 / RFU, GMCL1 /// GMCL1P1 / Fold change vs veh, GMCL1 /// GMCL1P1 / RFU, AEBP2 / Fold change vs veh, AEBP2 / RFU, SNHG1 /// SNORD22 /// SNORD25 /// SNORD26 /// SNORD27 /// SNORD28 /// SNORD29 /// SNORD31 / Fold change vs veh, SNHG1 /// SNORD22 /// SNORD25 /// SNORD26 /// SNORD27 /// SNORD28 /// SNORD29 /// SNORD31 / Fold change (Aza/veh), C12orf56 (ProbeSet 11735607_a_at) / Fold change (ACY-1035/veh), C12orf56 (ProbeSet 11735607_a_at) / Fold change (Aza/veh), FGFR1OP (ProbeSet 11751329_s_at) / Fold change (ACY-1035/veh), FGFR1OP (ProbeSet 11751329_s_at) / Fold change (Aza/veh), VPS36 (ProbeSet 11739960_a_at) / Fold change (ACY-1035/veh), VPS36 (ProbeSet 11739960_a_at) / RFU SYPL1 (11715823_x_at) / Fold change /veh SYPL1 (11715823_x_at) / RFU IGFBP7 (11715501_s_at) / Fold change /veh IGFBP7 (11715501_s_at) / RFU REEP3 (11722064_at) / Fold change /veh REEP3 (11722064_at) / RFU IGLL1 (11728026_x_at) / Fold change /veh IGLL1 (11728026_x_at): dose or concentration left out as unconfirmed", "details": "ProbeSet 11747889_x_at; LIST B", "data": [{"compound": "Nc1ncn([C@@H]2O[C@H](CO)[C@@H](O)[C@H]2O)c(=O)n1", "note": "[azacitidine]", "values": [{"measurement": "Fold change vs veh, SH3YL1", "result": 0.87}]}]}
